Where a name gives a salt, the structure may show the parent alone.
Assay: Stability evaluation under accelerated condition (40° C., RH 75%)
Type: physicochemical
Description: Long-term stability over twelve months was evaluated at 25° C. and a relative humidity of 60%; or accelerated stability over six months was evaluated at 40° C. and a relative humidity of 75%.

[1] = Month 0, limit 0.10%, listed as 151211
[2] = Month 0, limit 0.10%, listed as 151212
[3] = Month 0, limit 0.10%, listed as 151213
[4] = Month 1, limit 0.10%, listed as 151211
[5] = Month 1, limit 0.10%, listed as 151212
[6] = Month 1, limit 0.10%, listed as 151213
[7] = Month 1, limit 0.17%, listed as 151211
[8] = Month 1, limit 0.17%, listed as 151212
[9] = Month 1, limit 0.17%, listed as 151213
[10] = Month 2, limit 0.10%, listed as 151211
[11] = Month 2, limit 0.10%, listed as 151212
[12] = Month 2, limit 0.10%, listed as 151213
[13] = Month 2, limit 0.17%, listed as 151211
[14] = Month 2, limit 0.17%, listed as 151212
[15] = Month 2, limit 0.17%, listed as 151213
[16] = Month 3, limit 0.10%, listed as 151211
[17] = Month 3, limit 0.10%, listed as 151212
[18] = Month 3, limit 0.10%, listed as 151213
[19] = Month 6, limit 0.10%, listed as 151211
[20] = Month 6, limit 0.10%, listed as 151212
[21] = Month 6, limit 0.10%, listed as 151213
[22] = Month 6, limit 0.17%, listed as 151211
[23] = Month 6, limit 0.17%, listed as 151212
[24] = Month 6, limit 0.17%, listed as 151213

## CNC(=O)c1cc(OCc2nnc(Nc3ccc(Cl)cc3)c3ccoc23)ccn1 [EOC315 crystalline form Mod. I, 4-(4-chloroanilino)-7-(2-methylaminocarbonyl-4-oxymethyl)pyridylfuro[2,3-d]pyridazine mesylate]
[1]
  Related substance Impurity 5: 0.02%
  Related substance Impurity 6: 0.01%
[2]
  Related substance Impurity 5: 0.01%
  Related substance Impurity 6: Undetected
[3]
  Related substance Impurity 5: Undetected
  Related substance Impurity 6: Undetected
Month 0, limit 0.15%, listed as 151211
  Related substance Maximum single impurity: 0.0079%
Month 0, limit 0.15%, listed as 151212
  Related substance Maximum single impurity: 0.012%
Month 0, limit 0.15%, listed as 151213
  Related substance Maximum single impurity: 0.0085%
Month 0, limit 0.17%
  Related substance Impurity 1: Undetected
  Related substance Impurity 2: Undetected
Month 0, limit 0.17%, listed as 151211
  Related substance Impurity 3: 0.016%
Month 0, limit 0.17%, listed as 151212
  Related substance Impurity 3: 0.011%
Month 0, limit 0.17%, listed as 151213
  Related substance Impurity 3: 0.011%
Month 0, limit 1.0%, listed as 151211
  Related substance Total impurity: 0.53%
Month 0, limit 1.0%, listed as 151212
  Related substance Total impurity: 0.66%
Month 0, limit 1.0%, listed as 151213
  Related substance Total impurity: 0.52%
Month 0, limit 3.0%, listed as 151211
  Related substance Impurity 4: 0.36%
Month 0, limit 3.0%, listed as 151212
  Related substance Impurity 4: 0.46%
Month 0, limit 3.0%, listed as 151213
  Related substance Impurity 4: 0.35%
Month 0, limit ModI
  Crystalline form: ModI
[4]
  Related substance Impurity 5: Undetected
  Related substance Impurity 6: 0.01%
[5]
  Related substance Impurity 5: 0.01%
  Related substance Impurity 6: Undetected
[6]
  Related substance Impurity 5: 0.01%
  Related substance Impurity 6: Undetected
Month 1, limit 0.15%, listed as 151211
  Related substance Maximum single impurity: 0.011%
Month 1, limit 0.15%, listed as 151212
  Related substance Maximum single impurity: Undetected
Month 1, limit 0.15%, listed as 151213
  Related substance Maximum single impurity: 0.0077%
Month 1, limit 0.17%
  Related substance Impurity 1: Undetected
[7]
  Related substance Impurity 2: 0.0031%
  Related substance Impurity 3: 0.0040%
[8]
  Related substance Impurity 2: 0.0026%
  Related substance Impurity 3: 0.0037%
[9]
  Related substance Impurity 2: Undetected
  Related substance Impurity 3: 0.0035%
Month 1, limit 1.0%, listed as 151211
  Related substance Total impurity: 0.5%
Month 1, limit 1.0%, listed as 151212
  Related substance Total impurity: 0.6%
Month 1, limit 1.0%, listed as 151213
  Related substance Total impurity: 0.5%
Month 1, limit 3.0%, listed as 151211
  Related substance Impurity 4: 0.4%
Month 1, limit 3.0%, listed as 151212
  Related substance Impurity 4: 0.5%
Month 1, limit 3.0%, listed as 151213
  Related substance Impurity 4: 0.3%
[10]
  Related substance Impurity 5: Undetected
  Related substance Impurity 6: 0.01%
[11]
  Related substance Impurity 5: 0.02%
  Related substance Impurity 6: Undetected
[12]
  Related substance Impurity 5: Undetected
  Related substance Impurity 6: Undetected
Month 2, limit 0.15%, listed as 151211
  Related substance Maximum single impurity: 0.0045%
Month 2, limit 0.15%, listed as 151212
  Related substance Maximum single impurity: 0.0062%
Month 2, limit 0.15%, listed as 151213
  Related substance Maximum single impurity: 0.0067%
Month 2, limit 0.17%
  Related substance Impurity 1: Undetected
[13]
  Related substance Impurity 2: Undetected
  Related substance Impurity 3: 0.0013%
[14]
  Related substance Impurity 2: 0.0036%
  Related substance Impurity 3: 0.0070%
[15]
  Related substance Impurity 2: 0.0035%
  Related substance Impurity 3: 0.014%
Month 2, limit 1.0%, listed as 151211
  Related substance Total impurity: 0.6%
Month 2, limit 1.0%, listed as 151212
  Related substance Total impurity: 0.7%
Month 2, limit 1.0%, listed as 151213
  Related substance Total impurity: 0.6%
Month 2, limit 3.0%, listed as 151211
  Related substance Impurity 4: 0.4%
Month 2, limit 3.0%, listed as 151212
  Related substance Impurity 4: 0.5%
Month 2, limit 3.0%, listed as 151213
  Related substance Impurity 4: 0.4%
[16]
  Related substance Impurity 5: 0.01%
  Related substance Impurity 6: 0.02%
[17]
  Related substance Impurity 5: 0.01%
  Related substance Impurity 6: Undetected
[18]
  Related substance Impurity 5: Undetected
  Related substance Impurity 6: 0.01% d
Month 3, limit 0.15%
  Related substance Maximum single impurity: Undetected
Month 3, limit 0.17%
  Related substance Impurity 1: Undetected
  Related substance Impurity 2: Undetected
  Related substance Impurity 3: Undetected
Month 3, limit 1.0%, listed as 151211
  Related substance Total impurity: 0.5%
Month 3, limit 1.0%, listed as 151212
  Related substance Total impurity: 0.6%
Month 3, limit 1.0%, listed as 151213
  Related substance Total impurity: 0.5%
Month 3, limit 3.0%, listed as 151211
  Related substance Impurity 4: 0.4%
Month 3, limit 3.0%, listed as 151212
  Related substance Impurity 4: 0.5%
Month 3, limit 3.0%, listed as 151213
  Related substance Impurity 4: 0.37%
[19]
  Related substance Impurity 5: 0.01%
  Related substance Impurity 6: 0.01%
[20]
  Related substance Impurity 5: 0.01%
  Related substance Impurity 6: Undetected
[21]
  Related substance Impurity 5: Undetected
  Related substance Impurity 6: Undetected
Month 6, limit 0.15%, listed as 151211
  Related substance Maximum single impurity: 0.030%
Month 6, limit 0.15%, listed as 151212
  Related substance Maximum single impurity: 0.032%
Month 6, limit 0.15%, listed as 151213
  Related substance Maximum single impurity: 0.029%
Month 6, limit 0.17%
  Related substance Impurity 1: Undetected
[22]
  Related substance Impurity 2: 0.0061%
  Related substance Impurity 3: 0.045%
[23]
  Related substance Impurity 2: 0.0043%
  Related substance Impurity 3: 0.044%
[24]
  Related substance Impurity 2: 0.045%
  Related substance Impurity 3: 0.060%
Month 6, limit 1.0%, listed as 151211
  Related substance Total impurity: 0.7%
Month 6, limit 1.0%, listed as 151212
  Related substance Total impurity: 0.8%
Month 6, limit 1.0%, listed as 151213
  Related substance Total impurity: 0.7%
Month 6, limit 3.0%, listed as 151211
  Related substance Impurity 4: 0.4%
Month 6, limit 3.0%, listed as 151212
  Related substance Impurity 4: 0.5%
Month 6, limit 3.0%, listed as 151213
  Related substance Impurity 4: 0.4%
Month 6, limit ModI
  Crystalline form: ModI

From patent US10954246B2, “Compound of EOC315 Mod.I crystal form and preparation method thereof” (Taizhou EOC Pharma Co., Ltd., priority 2017, dated 2021)
